In patent US20090221621A1, “Methods of Reducing Alcohol-Induced Dose Dumping for Opioid Sustained Release Oral Dosage Forms” (priority 2005, published 2009):

Assay: Release test of matrix tablets, USP Type VII, 40% EtOH/water 0-4 hrs then water vs water only (Examples 9-11)
Format: physicochemical
Conditions: oxycodone HCl and hydromorphone HCl 30 mg tablets with vs without stearyl alcohol, FIGS. 12 and 13
Method: Ten grams each of formulations with and without stearyl alcohol were prepared via wet granulation technique. The amounts set forth in Tables 5 and 6 of oxycodone hydrochloride, lactose and Eudragit® RS PO were combined in an appropriate vessel and blended for 5 minutes. The powder mixture was granulated with water until a moist mass was produced. The wet mass was then passed through a 16-mesh size screen and was allowed to dry overnight at ambient conditions. In a small vessel, the required amount of stearyl alcohol (a stiffening agent) was melted over a water bath. Keeping the molten stearyl alcohol in the water bath, the desired amount of dried granules were added and mixed until the granules were sufficiently coated with the molten stearyl alcohol. The mixture was removed from the water bath and allowed to cool at ambient conditions before sizing through a 16-mesh screen. Talc and magnesium stearate were added to the coated granules and blended using a suitable blender. The granules were then compressed to 375 mg tablets using an appropriate tabletting machine, such as a Carver press. For granules that were not coated with stearyl alcohol, granules were compressed to 300 mg tablets.
The same manufacturing procedure as Example 7 was used, with the substitution of hydromorphone HCl instead of oxycodone HCl.
Samples for this test came from Examples 7 and 8. […]

Compound: CCCCCCCCCCCCCCCCCCO [Stearyl alcohol, stearyl alcohol]
- Effect of the excipient on ethanol effect on opioid release functionality: suppressed ethanol effect on opioid functionality
